Data from PubChem BioAssay (NCI).
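In this assay, cells in 96-well plates receive the compound at five concentrations for 48 hours. Endpoints are linearly interpolated between the surrounding concentrations. TGI marks complete inhibition of growth.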

Legend:
Assay in all cases: inhibition of tumour cell growth, NCI panel, 48 h
786-0 renal = tested on: 786-0 renal
A498 renal = tested on: A498 renal
A549 NSCLC = tested on: A549 NSCLC
ACHN renal = tested on: ACHN renal
CAKI-1 renal = tested on: CAKI-1 renal
CCRF-CEM leukemia = tested on: CCRF-CEM leukemia
COLO 205 colon = tested on: COLO 205 colon
DLD-1 colon = tested on: DLD-1 colon
DMS 114 small cell lung = tested on: DMS 114 small cell lung
DMS 273 small cell lung = tested on: DMS 273 small cell lung
EKVX NSCLC = tested on: EKVX NSCLC
HCC-2998 colon = tested on: HCC-2998 colon
HCT-116 colon = tested on: HCT-116 colon
HCT-15 colon = tested on: HCT-15 colon
HL-60(TB) leukemia = tested on: HL-60(TB) leukemia
HOP-18 NSCLC = tested on: HOP-18 NSCLC
HOP-62 NSCLC = tested on: HOP-62 NSCLC
HOP-92 NSCLC = tested on: HOP-92 NSCLC
HT29 colon = tested on: HT29 colon
IGROV1 ovarian = tested on: IGROV1 ovarian
K-562 leukemia = tested on: K-562 leukemia
KM12 colon = tested on: KM12 colon
KM20L2 colon = tested on: KM20L2 colon
LOX IMVI melanoma = tested on: LOX IMVI melanoma
LXFL 529 NSCLC = tested on: LXFL 529 NSCLC
M14 melanoma = tested on: M14 melanoma
M19-MEL melanoma = tested on: M19-MEL melanoma
MALME-3M melanoma = tested on: MALME-3M melanoma
MOLT-4 leukemia = tested on: MOLT-4 leukemia
NCI-H226 lung = tested on: NCI-H226 lung
NCI-H23 lung = tested on: NCI-H23 lung
NCI-H460 lung = tested on: NCI-H460 lung
NCI-H522 lung = tested on: NCI-H522 lung
OVCAR-3 ovarian = tested on: OVCAR-3 ovarian
OVCAR-4 ovarian = tested on: OVCAR-4 ovarian
OVCAR-5 ovarian = tested on: OVCAR-5 ovarian
OVCAR-8 ovarian = tested on: OVCAR-8 ovarian
RPMI-8226 leukemia = tested on: RPMI-8226 leukemia
RXF 393 renal = tested on: RXF 393 renal
RXF-631 renal = tested on: RXF-631 renal
SF-268 CNS = tested on: SF-268 CNS
SF-295 CNS = tested on: SF-295 CNS
SF-539 CNS = tested on: SF-539 CNS
SK-MEL-2 melanoma = tested on: SK-MEL-2 melanoma
SK-MEL-28 melanoma = tested on: SK-MEL-28 melanoma
SK-MEL-5 melanoma = tested on: SK-MEL-5 melanoma
SK-OV-3 ovarian = tested on: SK-OV-3 ovarian
SN12C renal = tested on: SN12C renal
SNB-19 CNS = tested on: SNB-19 CNS
SNB-75 CNS = tested on: SNB-75 CNS
SNB-78 CNS = tested on: SNB-78 CNS
SR leukemia = tested on: SR leukemia
SW-620 colon = tested on: SW-620 colon
TK-10 renal = tested on: TK-10 renal
U251 CNS = tested on: U251 CNS
UACC-257 melanoma = tested on: UACC-257 melanoma
UACC-62 melanoma = tested on: UACC-62 melanoma
UO-31 renal = tested on: UO-31 renal
XF 498 CNS = tested on: XF 498 CNS

Measured: TGI

O=C1CCC(=O)c2cc(Br)ccc2N1
63.1 µM: SR leukemia
> 55 µM: HCT-116 colon
> 100 µM: all other assays above

Cc1[nH]n(-c2ccccc2)c(=S)c1C(=O)c1ccccc1
93.7 µM: M14 melanoma
64.8 µM: SNB-78 CNS
61.6 µM: RXF-631 renal
99.1 µM: DMS 114 small cell lung
37.2 µM: LXFL 529 NSCLC
79.4 µM: MOLT-4 leukemia
50.2 µM: RPMI-8226 leukemia
45.1 µM: SN12C renal
44.9 µM: A498 renal
77.1 µM: HCC-2998 colon
94.4 µM: TK-10 renal
54.9 µM: EKVX NSCLC
60.9 µM: DLD-1 colon
57 µM: CCRF-CEM leukemia
10.8 µM: RXF 393 renal
not listed: 786-0 renal | HCT-116 colon | HOP-18 NSCLC | HOP-62 NSCLC | HOP-92 NSCLC | HT29 colon | M19-MEL melanoma | NCI-H226 lung | NCI-H460 lung | OVCAR-3 ovarian | SR leukemia
> 100 µM: all other assays above
